Measured values as given in patent publication US9296741B2, “Bromodomain inhibitors” (priority 2012, dated 2016).
Where two headings read alike, the source gives them in different places.

Columns and labels:
[1] = tested on: breast cancer cell line MX-1; assay: MX-1 cell line proliferation assay; type: cell-based, human; conditions: MX-1 cells, 3-day proliferation, Cell Titer Glo, read-out: Cellular proliferation: EC50
[2] = Human liver microsome stability assay; type: in vitro ADME; conditions: human, microsomes, pH 7.4; for half-life at 0.5 μM: both sexes
[3] = target: human BRD4 first bromodomain (BDI_K57-E168) (Homo sapiens (Human), UniProt O60885); assay: TR-FRET bromodomain binding assay, BRD4 first bromodomain
[4] = Rat liver microsome stability assay; type: in vitro ADME; conditions: for half-life at 0.5 μM: rat liver microsomes (male Sprague-Dawley), 0.5 μM test compound, 0.25 mg/mL microsomal protein, pH 7.4, 37° C., read-out: Stability in rat liver microsomes (t1/2 in minutes)
[5] = target: human BRD4 second bromodomain (BDII_E352-M457) (Homo sapiens (Human), UniProt O60885); assay: TR-FRET bromodomain binding assay, BRD4 second bromodomain

| EC50 ([1]; Homo sapiens, MX1, 72 h) [nM] | half-life at 0.5 μM [2] [min] | Ki [3] [nM] | half-life at 0.5 μM [4] [min] | Ki [5] [nM] | EC50 [1] [nM] | Stability in human liver microsomes (t1/2 in minutes) [2] [min] | Stability in rat liver microsomes (t1/2 in minutes) ([4]; rat, microsomes, pH 7.4) [min] | Compound |
| --- | --- | --- | --- | --- | --- | --- | --- | --- |
| 510 | 2 | 71.9 | 5 | 11.5 |  |  |  | CCS(=O)(=O)N(Cc1ccccn1)c1ccc(Oc2ccc(F)cc2F)c(-c2cn(C)c(=O)c3[nH]ccc23)c1 [Example 342, N-[4-(2,4-difluorophenoxy)-3-(6-methyl-7-oxo-6,7-dihydro-1H-pyrrolo[2,3-c]pyridin-4-yl)phenyl]-N-(pyridin-2-ylmethyl)ethanesulfonamide] |
| 18.6 | 83 | 14.2 | 43 | 5.2 |  |  |  | CCS(=O)(=O)Cc1ccc(Oc2ccc(F)cc2F)c(-c2cn(C)c(=O)c3[nH]ccc23)c1 [Example 297, 4-{2-(2,4-difluorophenoxy)-5-[(ethylsulfonyl)methyl]phenyl}-6-methyl-1,6-dihydro-7H-pyrrolo[2,3-c]pyridin-7-one] |
| 10.1 |  | 2.8 |  | 2.4 |  |  |  | CNS(=O)(=O)c1ccc(NCC2CC2)c(-c2cn(C)c(=O)c3[nH]ccc23)c1 [Example 239, 4-[(cyclopropylmethyl)amino]-N-methyl-3-(6-methyl-7-oxo-6,7-dihydro-1H-pyrrolo[2,3-c]pyridin-4-yl)benzenesulfonamide] |
| 224 | 2 | 42.7 | 7 | 4.8 |  |  |  | CCS(=O)(=O)N(CC1CC1)c1ccc(Oc2ccc(F)cc2F)c(-c2cn(C)c(=O)c3[nH]ccc23)c1 [Example 343, N-(cyclopropylmethyl)-N-[4-(2,4-difluorophenoxy)-3-(6-methyl-7-oxo-6,7-dihydro-1H-pyrrolo[2,3-c]pyridin-4-yl)phenyl]ethanesulfonamide] |
| 112 | 2 | 10.2 | 4 | 11.6 |  |  |  | CCN(CC)S(=O)(=O)c1cnc(OCC2CC2)c(-c2cn(C)c(=O)c3[nH]ccc23)c1 [Example 272, 6-(cyclopropylmethoxy)-N,N-diethyl-5-(6-methyl-7-oxo-6,7-dihydro-1H-pyrrolo[2,3-c]pyridin-4-yl)pyridine-3-sulfonamide] |
| 17.7 |  | 3.6 |  | 2.9 |  |  |  | Cn1cc(-c2cc(S(C)(=O)=O)ccc2OCCC2CC2)c2cc[nH]c2c1=O [Example 219, 4-[2-(2-cyclopropylethoxy)-5-(methylsulfonyl)phenyl]-6-methyl-1,6-dihydro-7H-pyrrolo[2,3-c]pyridin-7-one] |
| 25.2 |  | 1.6 |  | 2.1 |  |  |  | Cn1cc(-c2cc(NS(C)(=O)=O)ccc2Oc2ccccc2)c2cc(CO)[nH]c2c1=O [Example 89, N-{3-[2-(hydroxymethyl)-6-methyl-7-oxo-6,7-dihydro-1H-pyrrolo[2,3-c]pyridin-4-yl]-4-phenoxyphenyl}methanesulfonamide] |
| 16.8 |  | 4 |  | 6.8 |  |  |  | CCS(=O)(=O)Nc1ccc(Oc2ccc(C#N)cc2)c(-c2cn(C)c(=O)c3[nH]ccc23)c1 [Example 90, N-[4-(4-cyanophenoxy)-3-(6-methyl-7-oxo-6,7-dihydro-1H-pyrrolo[2,3-c]pyridin-4-yl)phenyl]ethanesulfonamide] |
| 83.9 | 4 | 15.6 | 6 | 4 |  |  |  | Cn1cc(-c2cc(S(=O)(=O)Nc3ccc(F)cc3)ccc2OCC2CC2)c2cc[nH]c2c1=O [Example 347, 4-(cyclopropylmethoxy)-N-(4-fluorophenyl)-3-(6-methyl-7-oxo-6,7-dihydro-1H-pyrrolo[2,3-c]pyridin-4-yl)benzenesulfonamide] |
| 56.2 |  | 3 |  | 3.6 |  |  |  | Cn1cc(-c2cc(NS(C)(=O)=O)ccc2Oc2ccccc2C#N)c2cc[nH]c2c1=O [Example 25, N-[4-(2-cyanophenoxy)-3-(6-methyl-7-oxo-6,7-dihydro-1H-pyrrolo[2,3-c]pyridin-4-yl)phenyl]methanesulfonamide] |
|  |  | 0.76 |  | 0.57 | 6.2 | 10 | 26 | CCS(=O)(=O)c1ccc(O[C@H]2CC[C@@](C)(OC)CC2)c(-c2cn(C)c(=O)c3[nH]ccc23)c1 [Example 268, 4-(5-(ethylsulfonyl)-2-(cis-4-methoxy-4-methylcyclohexyloxy)phenyl)-6-methyl-1H-pyrrolo[2,3-c]pyridin-7(6H)-one] |
| 290 |  | 65.8 |  | 29.7 |  |  |  | CCOC(=O)c1cc2c(-c3cc(N(CC)S(C)(=O)=O)ccc3Oc3ccccc3)nn(C)c(=O)c2[nH]1 [Example 76, ethyl 4-{5-[ethyl(methylsulfonyl)amino]-2-phenoxyphenyl}-6-methyl-7-oxo-6,7-dihydro-1H-pyrrolo[2,3-d]pyridazine-2-carboxylate] |
| 6.9 |  | 2.2 |  | 1.5 |  |  |  | CC1CCC(Oc2ccc(S(C)(=O)=O)cc2-c2cn(C)c(=O)c3[nH]ccc23)CC1 (stereo not shown) [Example 233, 6-methyl-4-{2-[(4-methylcyclohexyl)oxy]-5-(methylsulfonyl)phenyl}-1,6-dihydro-7H-pyrrolo[2,3-c]pyridin-7-one] |
| 6.6 |  | 1.8 |  | 1.8 |  |  |  | Cn1cc(-c2cc(S(C)(=O)=O)ccc2OC2CCCC2)c2cc[nH]c2c1=O [Example 216, 4-[2-(cyclopentyloxy)-5-(methylsulfonyl)phenyl]-6-methyl-1,6-dihydro-7H-pyrrolo[2,3-c]pyridin-7-one] |
| 860 |  | 529 |  | 178 |  |  |  | Cn1cc(-c2cc([N+](=O)[O-])ccc2Oc2ccccc2)c2cc[nH]c2c1=O [Example 2, 6-methyl-4-(5-nitro-2-phenoxyphenyl)-1,6-dihydro-7H-pyrrolo[2,3-c]pyridin-7-one] |
| 103 |  | 9.5 |  | 0.99 |  |  |  | CCNC(=O)c1cc2c(-c3cc(NS(C)(=O)=O)ccc3Oc3ccccc3)nn(C)c(=O)c2[nH]1 [Example 81, N-ethyl-6-methyl-4-{5-[(methylsulfonyl)amino]-2-phenoxyphenyl}-7-oxo-6,7-dihydro-1H-pyrrolo[2,3-d]pyridazine-2-carboxamide] |
| 5900 |  | 1700 |  | 2550 |  |  |  | COC(=O)c1cc2c(-c3ccccc3Oc3ccccc3)cn(C)c(=O)c2n1C [Example 68, methyl 1,6-dimethyl-7-oxo-4-(2-phenoxyphenyl)-6,7-dihydro-1H-pyrrolo[2,3-c]pyridine-2-carboxylate] |
| 636 |  | 430 |  | 136 |  |  |  | CCS(=O)(=O)N(CCN1CCCC1=O)c1ccc(Oc2ccc(F)cc2F)c(-c2cn(C)c(=O)c3[nH]ccc23)c1 [Example 344, N-[4-(2,4-difluorophenoxy)-3-(6-methyl-7-oxo-6,7-dihydro-1H-pyrrolo[2,3-c]pyridin-4-yl)phenyl]-N-[2-(2-oxopyrrolidin-1-yl)ethyl]ethanesulfonamide] |
| 21.1 | 4 | 6.3 | 5 | 14.3 |  |  |  | Cn1cc(-c2cc(S(C)(=O)=O)ccc2OC2Cc3ccccc3C2)c2cc[nH]c2c1=O [Example 277, 4-[2-(2,3-dihydro-1H-inden-2-yloxy)-5-(methylsulfonyl)phenyl]-6-methyl-1,6-dihydro-7H-pyrrolo[2,3-c]pyridin-7-one] |
| > 3000 | > 120 | 9 | > 120 | 35.6 |  |  |  | CCS(=O)(=O)c1ccc(OC2CCS(=O)(=O)CC2)c(-c2cn(C)c(=O)c3[nH]ccc23)c1 [Example 265, 4-{2-[(1,1-dioxidotetrahydro-2H-thiopyran-4-yl)oxy]-5-(ethylsulfonyl)phenyl}-6-methyl-1,6-dihydro-7H-pyrrolo[2,3-c]pyridin-7-one] |
| 622 |  | 295 |  | 81.7 |  |  |  | CCS(=O)(=O)N(CCOC)c1ccc(Oc2ccc(F)cc2F)c(-c2cn(C)c(=O)c3[nH]ccc23)c1 [Example 341, N-[4-(2,4-difluorophenoxy)-3-(6-methyl-7-oxo-6,7-dihydro-1H-pyrrolo[2,3-c]pyridin-4-yl)phenyl]-N-(2-methoxyethyl)ethanesulfonamide] |
| > 3000 |  | 47.4 |  | 381 |  |  |  | Cn1cc(-c2cc(NS(=O)(=O)CCF)ccc2Oc2ccc(C#N)cc2)c2cc[nH]c2c1=O [Example 113, N-[4-(4-cyanophenoxy)-3-(6-methyl-7-oxo-6,7-dihydro-1H-pyrrolo[2,3-c]pyridin-4-yl)phenyl]-2-fluoroethanesulfonamide] |
| > 3000 |  | 12.4 |  | 310 |  |  |  | Cn1cc(-c2cc(S(C)(=O)=O)ccc2Oc2ccc(F)cc2F)c2cc(COc3cccnc3)[nH]c2c1=O [Example 289, 4-[2-(2,4-difluorophenoxy)-5-(methylsulfonyl)phenyl]-6-methyl-2-[(pyridin-3-yloxy)methyl]-1,6-dihydro-7H-pyrrolo[2,3-c]pyridin-7-one] |
| 15.9 |  | 3 |  | 3.4 |  |  |  | Cn1cc(-c2cc(S(C)(=O)=O)ccc2OCC2CCC2)c2cc[nH]c2c1=O [Example 234, 4-[2-(cyclobutylmethoxy)-5-(methylsulfonyl)phenyl]-6-methyl-1,6-dihydro-7H-pyrrolo[2,3-c]pyridin-7-one] |
| 370 |  | 22.3 |  | 107 |  |  |  | CCS(=O)(=O)Nc1ccc(OCc2cc(C)nn2C)c(-c2cn(C)c(=O)c3[nH]ccc23)c1 [Example 143, N-{4-[(1,3-dimethyl-1H-pyrazol-5-yl)methoxy]-3-(6-methyl-7-oxo-6,7-dihydro-1H-pyrrolo[2,3-c]pyridin-4-yl)phenyl}ethanesulfonamide] |
